# Test results reported in patent US8541603B2, “Substituted cyclopentanes or cyclopentanones as therapeutic agents” (Allergan, Inc., priority 2008, dated 2013).
# Test system: lashes and adjacent hairs of the eyelids
# Experiment: Observation of lashes of glaucoma patients treated with bimatoprost in only one eye
# Type: in vivo
# Conditions: glaucoma patient treated in one eye only
# From the text: In the course of treating patients having glaucoma, treatment may only be appropriate in one eye. […] The lash appearance on the lids of the treated eyes would have appeared quite attractive if it represented a bilateral phenomenon. As a result of its asymmetric nature, the long lashes on one side could be construed as disturbing from a cosmetic standpoint. A systemic examination was preformed as a result of the asymmetric phenomenon. It soon became apparent that this altered appearance was not an isolated finding. […] Definite differences could be identified to varying degrees in the lashes and adjacent hairs of all patients who were taking the drug on a unilateral basis for longer than 6 months.
# The changes in the lashes were apparent on gross inspection in several patients once attention was focused on the issue. In those with light colored hair and lashes, the differences were only seen easily with the aid of the high magnification and lighting capabilities of the slit lamp biomicroscope. In the course of glaucoma follow-up examination, attention is generally immediately focused on the eye itself. As a result of the high power magnification needed only one eye is seen at a time and the eye is seen at a high enough power that the lashes are not in focus. […]
smiles,measurement,value
CCNC(=O)CCC/C=C\C[C@@H]1[C@@H](/C=C/[C@@H](O)CCc2ccccc2)[C@H](O)C[C@@H]1O [bimatoprost],lashes in the treated eye versus the non-treated eye,"longer, thicker, and fuller"
